The results in this text go back to ChEMBL document CHEMBL1152477, “Evaluation of substrate and inhibitor properties of a novel MDR modulator H17 towards transmembrane efflux pumps” (Eur J Med Chem, 2009).

The species entered for series [1] is Rattus norvegicus. Nature of the series: Inhibition of P-glycoprotein in White Wistar rat colon assessed as permeability at 30 uM after 30 mins by HPLC analysis.
For series [2], the species on record is Rattus norvegicus. Nature of the series: Inhibition of P-glycoprotein in White Wistar rat ileum assessed as permeability at 30 uM after 30 mins by HPLC analysis. The series is classed as tissue-based.
Series [3] is filed under the species Rattus norvegicus. Briefly: Inhibition of P-glycoprotein in White Wistar rat jejunum assessed as permeability at 30 uM after 30 mins by HPLC analysis. The series is classed as tissue-based.
The target in series [4] is T1, Multidrug resistance-associated protein 1 (Rattus norvegicus, UniProt Q8CG09). Nature of the series: Inhibition of MRP1/MRP2 in White Wistar rat colon assessed as increase in drug uptake at 1 mM after 30 mins by HPLC analysis. Conditions: 0.5 h, 1000 µM.
In series [5] the target is T1, Multidrug resistance-associated protein 1. Nature of the series: Inhibition of MRP1/MRP2 in White Wistar rat ileum assessed as increase in drug uptake at 1 mM after 30 mins by HPLC analysis. The series is classed as tissue-based. Conditions: 0.5 h, 1000 µM.
Series [6] shares this target. Nature of the series: Inhibition of MRP1/MRP2 in White Wistar rat jejunum assessed as increase in drug uptake at 1 mM after 30 mins by HPLC analysis. Conditions: 0.5 h, 1000 µM. It is filed as tissue-based.

T1 sequence (Q8CG09 whole entry): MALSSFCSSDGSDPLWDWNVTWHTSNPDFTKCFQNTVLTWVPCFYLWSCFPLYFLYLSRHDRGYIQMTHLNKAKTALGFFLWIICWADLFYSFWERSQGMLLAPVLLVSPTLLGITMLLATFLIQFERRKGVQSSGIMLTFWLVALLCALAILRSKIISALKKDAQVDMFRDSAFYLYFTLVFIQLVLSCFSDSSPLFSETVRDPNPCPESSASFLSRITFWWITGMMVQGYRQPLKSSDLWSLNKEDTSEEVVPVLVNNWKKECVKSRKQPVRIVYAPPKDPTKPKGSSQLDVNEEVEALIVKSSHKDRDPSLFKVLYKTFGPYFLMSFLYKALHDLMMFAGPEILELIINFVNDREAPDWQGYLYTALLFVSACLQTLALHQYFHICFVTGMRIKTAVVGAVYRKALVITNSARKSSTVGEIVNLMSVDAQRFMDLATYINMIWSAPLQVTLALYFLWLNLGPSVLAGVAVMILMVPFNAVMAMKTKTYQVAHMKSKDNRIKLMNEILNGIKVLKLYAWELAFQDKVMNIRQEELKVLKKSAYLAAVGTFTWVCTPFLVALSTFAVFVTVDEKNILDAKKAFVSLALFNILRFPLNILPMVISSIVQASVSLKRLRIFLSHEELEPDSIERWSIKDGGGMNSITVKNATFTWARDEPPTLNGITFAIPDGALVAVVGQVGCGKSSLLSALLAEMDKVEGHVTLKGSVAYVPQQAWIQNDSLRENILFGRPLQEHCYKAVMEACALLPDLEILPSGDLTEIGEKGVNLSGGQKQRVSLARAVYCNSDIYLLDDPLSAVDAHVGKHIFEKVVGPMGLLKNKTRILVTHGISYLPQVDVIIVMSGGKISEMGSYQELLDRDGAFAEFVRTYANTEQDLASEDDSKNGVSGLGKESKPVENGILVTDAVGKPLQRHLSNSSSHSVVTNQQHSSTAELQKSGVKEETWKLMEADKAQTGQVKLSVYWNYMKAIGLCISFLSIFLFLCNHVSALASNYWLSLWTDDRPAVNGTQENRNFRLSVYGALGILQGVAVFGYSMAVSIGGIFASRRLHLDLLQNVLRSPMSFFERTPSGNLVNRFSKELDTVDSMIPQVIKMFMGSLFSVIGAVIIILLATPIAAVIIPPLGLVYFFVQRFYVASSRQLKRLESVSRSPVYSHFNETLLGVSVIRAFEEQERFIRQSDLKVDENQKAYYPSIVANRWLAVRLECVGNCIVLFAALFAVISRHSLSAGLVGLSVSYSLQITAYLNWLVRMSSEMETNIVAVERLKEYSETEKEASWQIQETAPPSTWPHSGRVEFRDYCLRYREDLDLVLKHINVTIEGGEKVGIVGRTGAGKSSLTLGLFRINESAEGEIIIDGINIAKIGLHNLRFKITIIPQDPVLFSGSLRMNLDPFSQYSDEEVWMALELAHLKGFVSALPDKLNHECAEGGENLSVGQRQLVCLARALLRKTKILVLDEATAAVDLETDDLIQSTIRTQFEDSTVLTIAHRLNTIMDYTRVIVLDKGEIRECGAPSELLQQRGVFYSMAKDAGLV

In the case of `OCC12C3C4C1N(Cc1ccccc1)C1(CO)C(CO)(C4c4ccccc4)C(N3Cc3ccccc3)C1(CO)C2c1ccccc1` (stereo unspecified), the permeability is 2.05 ×10⁻⁴ cm/s in series [1], 2.4 ×10⁻⁴ cm/s in series [2] and 2.36 ×10⁻⁴ cm/s in series [3].
For `COc1ccc2c(c1)c(CC(=O)O)c(C)n2C(=O)c1ccc(Cl)cc1` [INDOMETHACIN], the Drug uptake in series [4] is 13%; in series [5], 13%; in series [6], 24%.
